Test results from patent publication US4607039A, “Quinoline derivatives which are 5-hydroxytryptamine antagonists” (Imperial Chemical Industries PLC, priority 1982, dated 1986).

What was measured:
[1] = Tolerance in the conscious dog, oral; conditions: in vivo, read-out: oral doses tolerated (up to)
Protocol: (§1) No toxic effects or other undesirable effects have been observed with the compounds at doses at which they are active in the above-mentioned tests. Furthermore, as an indication of the lack of toxicity of a specific compound of the invention, namely 2-(2-dimethylamino-2-methylpropylthio)-4-methyl-3-phenylquinoline, that compound is tolerated in both the conscious dog and the marmoset at oral doses of up to 60 mg./kg.

[2] = Tolerance in the marmoset, oral; conditions: in vivo, read-out: oral doses tolerated (up to)
Protocol: as §1

[3] = stated in U.S. Pat. No. 1,860,286; cited from earlier work

Which results are given for `Cc1c(-c2ccccc2)c(SCC(C)(C)N(C)C)nc2ccccc12.O=C(O)/C=C/C(=O)O.O=C(O)/C=C/C(=O)O` [Example 3, 2-(2-dimethylamino-2-methylpropylthio)-4-methyl-3-phenylquinoline difumarate]?
MTD [1]: ≥ 60 mg/kg; MTD [2]: ≥ 60 mg/kg

Which antipyretic activity [3] does the source give for `CCN(CC)CCOc1nc2ccccc2cc1-c1ccccc1` [2-(2-diethylaminoethoxy)-3-phenylquinoline] here?
Its antipyretic activity is “exhibits antipyretic activity”.
